# Data as given in patent publication US20200331925A1, “HETEROCYCLIC COMPOUNDS FOR THE TREATMENT OF ABNORMAL CELLULAR PROLIFERATION” (G1 Therapeutics, Inc., priority 2018, published 2020).
# Columns and labels:
# Format in all cases: biochemical
# CDK5/p35 = CDK5/p35 (Homo sapiens, UniProt Q00535); test: CDK5/p35 kinase assay (Nanosyn, Caliper microfluidic); details: 12-point dose-response, ATP at Km (20 μM), 3 hr
# Method in brief: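 Microfluidic mobility-shift kinase assay with 0.05 nM CDK5/p35, 20 μM ATP (Km) and 1 μM peptide substrate, 3 hr incubation. Compounds tested as 12-point dose–response in singlicate; staurosporine as reference.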
# CDK5/p25 = CDK5/p25 (Homo sapiens, UniProt Q00535); test: CDK5/p25 kinase assay (Nanosyn, Caliper microfluidic); details: 12-point dose-response, ATP at Km (20 μM), 3 hr
# Chain of CDK5/p25 (Q00535 whole entry): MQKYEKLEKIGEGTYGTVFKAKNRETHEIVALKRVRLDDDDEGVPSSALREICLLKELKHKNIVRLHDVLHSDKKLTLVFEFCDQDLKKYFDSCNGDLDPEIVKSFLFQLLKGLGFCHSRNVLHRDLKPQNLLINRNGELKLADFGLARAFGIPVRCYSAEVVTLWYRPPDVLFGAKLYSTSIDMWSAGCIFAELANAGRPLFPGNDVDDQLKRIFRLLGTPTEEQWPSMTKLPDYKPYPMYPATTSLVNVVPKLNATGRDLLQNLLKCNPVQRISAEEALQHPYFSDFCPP
# Chain of CDK5/p25 (Q15078 99-307 partner limits assumed): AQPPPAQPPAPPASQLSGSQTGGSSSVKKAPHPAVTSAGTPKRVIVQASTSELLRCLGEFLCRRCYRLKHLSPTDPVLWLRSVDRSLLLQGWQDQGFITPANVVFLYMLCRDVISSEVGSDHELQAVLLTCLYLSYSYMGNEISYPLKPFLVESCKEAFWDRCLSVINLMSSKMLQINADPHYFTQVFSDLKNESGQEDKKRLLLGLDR
# Method in brief: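 Caliper microfluidic mobility-shift assay, 12-point dose-response in singlicate. CDK5/p25 at 0.1 nM with 20 μM ATP (Km) and 1 μM peptide substrate. Incubation 3 hr.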
# CDK2/Cyclin A = CDK2/Cyclin A (Homo sapiens, UniProt P24941); test: CDK2/Cyclin A kinase assay (Nanosyn, Caliper microfluidic); details: 12-point dose-response, ATP at Km (50 μM), 3 hr
# Method in brief: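 Caliper microfluidic mobility-shift read-out; 0.1 nM enzyme, 50 μM ATP (Km), 1 μM peptide substrate, 3 hr incubation. 12-point dose-response in singlicate; staurosporine as reference.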
# CDK7/Cyclin H = CDK7/Cyclin H (Homo sapiens, UniProt P50613); test: CDK7/Cyclin H kinase assay (Nanosyn, Caliper microfluidic); details: 12-point dose-response, ATP at Km (50 μM), 17 hr
# Chain of CDK7/Cyclin H (P50613 whole entry): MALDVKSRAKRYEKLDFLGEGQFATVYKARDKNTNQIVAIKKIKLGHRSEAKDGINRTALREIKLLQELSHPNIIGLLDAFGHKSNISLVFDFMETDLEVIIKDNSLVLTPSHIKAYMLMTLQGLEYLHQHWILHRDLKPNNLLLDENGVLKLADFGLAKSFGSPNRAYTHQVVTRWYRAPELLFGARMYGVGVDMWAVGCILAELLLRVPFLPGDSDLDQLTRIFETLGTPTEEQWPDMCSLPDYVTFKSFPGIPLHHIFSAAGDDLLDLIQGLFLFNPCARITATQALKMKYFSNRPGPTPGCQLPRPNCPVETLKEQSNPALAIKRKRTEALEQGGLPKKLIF
# Chain of CDK7/Cyclin H (P51946 whole entry partner): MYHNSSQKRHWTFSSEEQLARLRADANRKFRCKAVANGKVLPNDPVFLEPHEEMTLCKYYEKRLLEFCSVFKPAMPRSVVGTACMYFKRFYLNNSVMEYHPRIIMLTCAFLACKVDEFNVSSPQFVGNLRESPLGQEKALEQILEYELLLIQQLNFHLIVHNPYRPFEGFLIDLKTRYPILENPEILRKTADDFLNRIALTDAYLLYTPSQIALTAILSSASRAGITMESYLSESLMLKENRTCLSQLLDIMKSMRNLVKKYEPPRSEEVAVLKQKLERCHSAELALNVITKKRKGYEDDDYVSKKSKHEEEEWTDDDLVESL
# Chain of CDK7/Cyclin H (P51948 whole entry partner): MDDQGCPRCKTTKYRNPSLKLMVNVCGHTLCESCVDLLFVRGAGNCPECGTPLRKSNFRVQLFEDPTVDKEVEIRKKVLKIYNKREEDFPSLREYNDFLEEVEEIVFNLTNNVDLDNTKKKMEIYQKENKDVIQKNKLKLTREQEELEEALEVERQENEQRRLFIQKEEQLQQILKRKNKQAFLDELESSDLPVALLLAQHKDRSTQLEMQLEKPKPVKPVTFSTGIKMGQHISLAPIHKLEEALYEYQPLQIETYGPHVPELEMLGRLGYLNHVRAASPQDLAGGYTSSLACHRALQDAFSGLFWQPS
# Method in brief: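 Caliper microfluidic mobility-shift assay with 10 nM CDK7/Cyclin H, 50 μM ATP (Km) and 1 μM peptide substrate, incubated 17 hr. Compounds run in 12-point dose-response, singlicate.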
# CDK2/Cyclin E = CDK2/Cyclin E (Homo sapiens, UniProt P24941); test: CDK2/Cyclin E kinase assay (Nanosyn, Caliper microfluidic); details: 12-point dose-response, ATP at Km (100 μM), 3 hr
# Method in brief: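 Caliper microfluidic mobility-shift readout of phosphorylation of 1 μM substrate peptide by 0.15 nM enzyme at 100 μM ATP (stated as Km), 3 hr incubation. 12-point dose-response in singlicate, staurosporine as reference.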
# CDK4/Cyclin D1 = CDK4/Cyclin D1 (Homo sapiens, UniProt P11802); test: CDK4/Cyclin D1 kinase assay (Nanosyn, Caliper microfluidic); details: 12-point dose-response, ATP at Km (200 μM), 3 hr; Table 4
# Chain of CDK4/Cyclin D1 (P11802 whole entry): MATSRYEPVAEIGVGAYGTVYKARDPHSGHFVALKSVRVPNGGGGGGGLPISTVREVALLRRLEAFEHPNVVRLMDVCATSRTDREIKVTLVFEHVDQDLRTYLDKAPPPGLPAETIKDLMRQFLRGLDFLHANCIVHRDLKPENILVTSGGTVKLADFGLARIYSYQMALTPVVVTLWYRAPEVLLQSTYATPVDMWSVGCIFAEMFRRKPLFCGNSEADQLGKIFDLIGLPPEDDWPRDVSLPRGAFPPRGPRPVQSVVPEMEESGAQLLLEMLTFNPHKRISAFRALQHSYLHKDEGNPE
# Chain of CDK4/Cyclin D1 (P24385 whole entry partner): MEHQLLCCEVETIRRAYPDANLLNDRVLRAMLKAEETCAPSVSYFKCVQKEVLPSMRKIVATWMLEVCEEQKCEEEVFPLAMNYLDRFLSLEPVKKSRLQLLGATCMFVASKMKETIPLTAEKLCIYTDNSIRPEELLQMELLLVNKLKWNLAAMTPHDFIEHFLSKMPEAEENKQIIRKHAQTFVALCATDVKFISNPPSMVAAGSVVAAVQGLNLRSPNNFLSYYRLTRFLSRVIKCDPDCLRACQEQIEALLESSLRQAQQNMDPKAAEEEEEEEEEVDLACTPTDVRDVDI
# Method in brief: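 Caliper microfluidic mobility-shift read-out, 12-point dose-response in singlicate. 1 nM enzyme, 200 μM ATP (Km), 1 μM peptide substrate, 3 hr incubation; staurosporine as reference.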
# CDK9/Cyclin T = CDK9/Cyclin T (Homo sapiens, UniProt P50750); test: CDK9/Cyclin T kinase assay (Nanosyn, Caliper microfluidic); details: 12-point dose-response, ATP at Km (10 μM), 17 hr; Table 5
# Chain of CDK9/Cyclin T (P50750 whole entry): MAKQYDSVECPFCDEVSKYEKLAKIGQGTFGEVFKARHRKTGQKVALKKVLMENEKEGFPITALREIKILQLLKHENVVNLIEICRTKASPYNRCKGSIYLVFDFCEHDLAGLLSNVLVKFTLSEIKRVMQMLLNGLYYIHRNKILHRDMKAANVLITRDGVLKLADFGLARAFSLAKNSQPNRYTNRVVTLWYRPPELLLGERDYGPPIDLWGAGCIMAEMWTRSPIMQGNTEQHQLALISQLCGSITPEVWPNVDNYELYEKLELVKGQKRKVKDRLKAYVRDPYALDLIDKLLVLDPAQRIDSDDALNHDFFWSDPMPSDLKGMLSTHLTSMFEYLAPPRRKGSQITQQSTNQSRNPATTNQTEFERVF
# Chain of CDK9/Cyclin T (O60563 whole entry partner): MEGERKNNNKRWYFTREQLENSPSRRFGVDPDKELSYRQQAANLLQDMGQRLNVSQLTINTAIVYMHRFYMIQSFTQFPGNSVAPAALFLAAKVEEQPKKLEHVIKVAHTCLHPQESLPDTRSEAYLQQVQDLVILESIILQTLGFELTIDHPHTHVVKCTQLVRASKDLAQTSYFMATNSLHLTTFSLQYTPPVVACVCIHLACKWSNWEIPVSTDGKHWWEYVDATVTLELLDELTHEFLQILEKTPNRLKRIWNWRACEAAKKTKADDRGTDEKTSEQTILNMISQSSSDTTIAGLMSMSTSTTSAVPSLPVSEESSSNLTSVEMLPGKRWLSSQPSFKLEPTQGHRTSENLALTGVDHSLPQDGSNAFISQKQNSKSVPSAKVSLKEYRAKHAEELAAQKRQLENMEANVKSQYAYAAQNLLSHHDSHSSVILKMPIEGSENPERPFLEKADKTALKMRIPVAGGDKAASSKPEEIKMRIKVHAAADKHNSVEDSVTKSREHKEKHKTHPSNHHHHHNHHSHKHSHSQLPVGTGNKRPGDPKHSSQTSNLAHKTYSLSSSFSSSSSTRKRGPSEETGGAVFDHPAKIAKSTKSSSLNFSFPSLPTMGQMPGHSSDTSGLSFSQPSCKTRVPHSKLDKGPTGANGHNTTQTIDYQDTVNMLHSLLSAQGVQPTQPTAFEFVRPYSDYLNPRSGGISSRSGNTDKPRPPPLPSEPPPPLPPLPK
# Method in brief: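 Caliper microfluidic mobility-shift read-out, 12-point dose-response in singlicate at ATP Km with 1 μM peptide substrate; staurosporine reference.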
# CDK3/Cyclin E = CDK3/Cyclin E (Homo sapiens, UniProt Q00526); test: CDK3/Cyclin E kinase assay (Nanosyn, Caliper microfluidic); details: 12-point dose-response, ATP at Km (400 μM), 3 hr
# Method in brief: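 Caliper microfluidic mobility-shift read-out with 1 nM enzyme, 400 μM ATP (stated as Km) and 1 μM peptide substrate, 3 hr incubation. Compounds run as 12-point dose-response in singlicate.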
# CDK6/Cyclin D3 = CDK6/Cyclin D3 (Homo sapiens, UniProt Q00534); test: CDK6/Cyclin D3 kinase assay (Nanosyn, Caliper microfluidic); details: 12-point dose-response, ATP at Km (300 μM), 3 hr
# Chain of CDK6/Cyclin D3 (Q00534 whole entry): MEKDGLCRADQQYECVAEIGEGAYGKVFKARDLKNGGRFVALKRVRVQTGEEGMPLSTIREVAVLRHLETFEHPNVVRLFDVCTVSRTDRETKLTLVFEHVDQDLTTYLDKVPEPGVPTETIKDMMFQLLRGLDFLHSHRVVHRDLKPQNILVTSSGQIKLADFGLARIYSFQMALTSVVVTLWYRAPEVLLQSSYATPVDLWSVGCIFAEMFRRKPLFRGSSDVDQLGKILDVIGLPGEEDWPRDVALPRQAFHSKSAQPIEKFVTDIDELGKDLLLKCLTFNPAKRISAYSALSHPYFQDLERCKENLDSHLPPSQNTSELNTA
# Chain of CDK6/Cyclin D3 (P30281 whole entry partner): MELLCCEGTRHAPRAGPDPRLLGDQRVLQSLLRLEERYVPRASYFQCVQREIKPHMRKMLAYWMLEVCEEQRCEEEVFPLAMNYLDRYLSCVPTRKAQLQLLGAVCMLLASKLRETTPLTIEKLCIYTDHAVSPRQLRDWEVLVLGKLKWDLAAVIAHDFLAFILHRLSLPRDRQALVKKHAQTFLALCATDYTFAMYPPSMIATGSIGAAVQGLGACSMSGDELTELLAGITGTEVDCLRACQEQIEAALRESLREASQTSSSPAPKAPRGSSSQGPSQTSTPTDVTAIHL
# Method in brief: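 Caliper microfluidic assay with 2 nM enzyme, 300 μM ATP and 1 μM phosphoacceptor peptide, incubated for 3 hr. Compounds were run as 12-point dose-response curves in singlicate.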
# CDK1/Cyclin B1 = CDK1/Cyclin B1 (Homo sapiens, UniProt P06493); test: CDK1/Cyclin B1 kinase assay (Nanosyn, Caliper microfluidic); details: 12-point dose-response, ATP at Km (40 μM), 3 hr
# Method in brief: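 Mobility-shift microfluidic kinase assay, 12-point dose-response in singlicate. Conditions: 0.08 nM enzyme, 40 μM ATP (Km), 1 μM peptide substrate, 3 hr incubation; staurosporine as reference.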
# Chain of CDK5/p35 (Q00535 whole entry): as the sequence (Q00535 whole entry) above
# Chain of CDK5/p35 (Q15078 whole entry partner): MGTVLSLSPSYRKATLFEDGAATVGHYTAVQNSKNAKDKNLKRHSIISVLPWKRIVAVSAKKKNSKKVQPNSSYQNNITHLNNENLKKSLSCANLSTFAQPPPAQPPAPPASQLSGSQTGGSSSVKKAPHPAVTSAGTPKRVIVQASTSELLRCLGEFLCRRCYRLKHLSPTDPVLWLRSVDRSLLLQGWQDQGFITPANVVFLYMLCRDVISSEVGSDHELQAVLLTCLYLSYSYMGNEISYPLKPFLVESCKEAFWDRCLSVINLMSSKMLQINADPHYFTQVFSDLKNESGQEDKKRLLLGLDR
SMILES,IC50 (CDK5/p35) [nM],IC50 (CDK5/p25) [nM],IC50 (CDK2/Cyclin A) [nM],IC50 (CDK7/Cyclin H) [nM],IC50 (CDK2/Cyclin E) [nM],IC50 (CDK4/Cyclin D1) [nM],IC50 (CDK9/Cyclin T) [nM],IC50 (CDK3/Cyclin E) [nM],IC50 (CDK6/Cyclin D3) [nM],IC50 (CDK1/Cyclin B1) [nM]
"O=C1NCC2(CCCCC2)n2c1cc1cnc(N[C@H]3CC[C@H](N4CCCCC4)CC3)nc12 [Compound 46, 2′-(((1,4-trans)-4-(piperidin-1-yl)cyclohexyl)amino)-7′,8′-dihydro-6′H-spiro[cyclohexane-1,9′-pyrazino[1′,2′:1,5]pyrrolo[2,3-d]pyrimidin]-6′-one]",710,760,250,280,470,21,6.4,520,78,510
"O=C1NCC2(CCCCC2)n2c1cc1cnc(NC(=O)[C@@H]3CCNC3)nc12 [Compound 32, (R)-N-(6′-oxo-7′,8′-dihydro-6′H-spiro[cyclohexane-1,9′-pyrazino[1′,2′:1,5]pyrrolo[2,3-d]pyrimidin]-2′-yl)pyrrolidine-3-carboxamide]",16000,19000,3100,12000,12000,2300,12,8600,14000,5600
"O=C1NCC2(CCCCC2)n2c1cc1cnc(N[C@H]3CCCN[C@@H]3c3ccccc3)nc12 [Compound 10, 2′-(((2R,3S)-2-phenylpiperidin-3-yl)amino)-7′,8′-dihydro-6′H-spiro[cyclohexane-1,9′-pyrazino[1′,2′:1,5]pyrrolo[2,3-d]pyrimidin]-6′-one]",9700,11000,3600,1800,5700,36,80,16000,1200,8800
"NS(=O)(=O)c1cccc(Nc2ncc3cc4n(c3n2)C2(CCCCC2)CNC4=O)c1 [Compound 42, 3-((6′-oxo-7′,8′-dihydro-6′H-spiro[cyclohexane-1,9′-pyrazino[1′,2′:1,5]pyrrolo[2,3-d]pyrimidin]-2′-yl)amino)benzenesulfonamide]",7.5,5.5,4.3,240,7.8,8.9,1.2,12,22,8.8
"O=C1NCC2(CCCCC2)n2c1cc1cnc(N[C@H]3CCCNC3=O)nc12 [Compound 23, (S)-2′-((2-oxopiperidin-3-yl)amino)-7′,8′-dihydro-6′H-spiro[cyclohexane-1,9′-pyrazino[1′,2′:1,5]pyrrolo[2,3-d]pyrimidin]-6′-one]",47000,55000,28000,61000,35000,170,690,56000,940,39000
"O=C1NCC2(CCCCC2)n2c1cc1cnc(N[C@H]3CC[C@H](Nc4ncc(F)cn4)CC3)nc12 [Compound 19, 2′-(((1,4-trans)-4-((5-fluoropyrimidin-2-yl)amino)cyclohexyl)-12-azaneyl)-7′,8′-dihydro-6′H-spiro[cyclohexane-1,9′-pyrazino[1′,2′:1,5]pyrrolo[2,3-d]pyrimidin]-6′-one]",120,120,71,740,110,8.6,2.1,220,75,96
"C[C@H]1NCCC[C@H]1C(=O)Nc1ncc2cc3n(c2n1)C1(CCCCC1)CNC3=O [Compound 30, (2R,3R)-2-methyl-N-(6′-oxo-7′,8′-dihydro-6′H-spiro[cyclohexane-1,9′-pyrazino[1′,2′:1,5]pyrrolo[2,3-d]pyrimidin]-2′-yl)piperidine-3-carboxamide]",8000,8400,1900,4500,5400,1500,45,6900,15000,3800
"O=C1NCC2(CCCCC2)n2c1cc1cnc(N[C@H]3CC[C@H](NCc4ccccc4F)CC3)nc12 [Compound 20, 2′-(((1,4-trans)-4-((2-fluorobenzyl)amino)cyclohexyl)amino)-7′,8′-dihydro-6′H-spiro[cyclohexane-1,9′-pyrazino[1′,2′:1,5]pyrrolo[2,3-d]pyrimidin]-6′-one]",370,370,180,230,310,14,4.7,400,78,360
"O=C(C[C@H]1CCCN1)Nc1ncc2cc3n(c2n1)C1(CCCCC1)CNC3=O [Compound 37, (R)-N-(6′-oxo-7′,8′-dihydro-6′H-spiro[cyclohexane-1,9′-pyrazino[1′,2′:1,5]pyrrolo[2,3-d]pyrimidin]-2′-yl)-2-(pyrrolidin-2-yl)acetamide]",28000,31000,16000,17000,29000,6300,120,38000,14000,27000
"S=C1NCC2(CCCCC2)n2c1cc1cnc(N[C@H]3CCCNC3)nc12 [Compound 40, (S)-2′-(piperidin-3-ylamino)-7′,8′-dihydro-6′H-spiro[cyclohexane-1,9′-pyrazino[1′,2′:1,5]pyrrolo[2,3-d]pyrimidine]-6′-thione]",51,40,100,10,110,23,3.4,17,79,61
"O=C1NCC2(CCCCC2)n2c1cc1cnc(N[C@@H]3CCCNC3)nc12 [Compound 48, (R)-2′-(piperidin-3-ylamino)-7′,8′-dihydro-6′H-spiro[cyclohexane-1,9′-pyrazino[1′,2′:1,5]pyrrolo[2,3-d]pyrimidin]-6′-one]",1300,1200,390,330,1100,51,9,1000,230,510
"O=C1NCC2(CCCCC2)n2c1cc1cnc(N[C@H]3CC[C@H](N4CCOCC4)CC3)nc12 [Compound 44, 2′-(((1,4-trans)-4-morpholinocyclohexyl)amino)-7′,8′-dihydro-6′H-spiro[cyclohexane-1,9′-pyrazino[1′,2′:1,5]pyrrolo[2,3-d]pyrimidin]-6′-one]",320,270,170,270,290,24,6.2,470,100,490
"C1=NCC2(CCCCC2)n2c1cc1cnc(NC3CCOCC3)nc12 [Compound 52, N-(tetrahydro-2H-pyran-4-yl)-8′H-spiro[cyclohexane-1,9′-pyrazino[1′,2′:1,5]pyrrolo[2,3-d]pyrimidin]-2′-amine]",32,31,16,280,8.7,67,58,24,250,78
